Assay results as given in the supplement of paper PMC10307832.

Key:
Experiment in all cases: relative viability (nuclei count vs DMSO), 5 days (fraction); higher = more cells survive
Crizotinib + OSI-027 = compound: C[C@@H](Oc1cc(-c2cnn(C3CCNCC3)c2)cnc1N)c1c(Cl)ccc(F)c1Cl [Crizotinib] + COc1cccc2cc(-c3nc([C@H]4CC[C@H](C(=O)O)CC4)n4ncnc(N)c34)[nH]c12 [OSI-027] (partner 0.5 µM)
Method in brief: (§1)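 Relative viability was taken as the ratio of nuclei in treated wells to nuclei in vehicle wells. Lung cancer cell lines in 1536-well plates received compounds by pin tool one day after seeding, either one drug alone or a fixed anchor-drug dose plus five library-drug doses (not always all listed) in √10 steps. Nuclei were counted on 4× images after 5 days of treatment, and values are medians of duplicate plates.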

Carfilzomib + Trametinib = compound: CC(C)C[C@H](NC(=O)[C@H](CCc1ccccc1)NC(=O)CN1CCOCC1)C(=O)N[C@@H](Cc1ccccc1)C(=O)N[C@@H](CC(C)C)C(=O)[C@@]1(C)CO1 [Carfilzomib] + CC(=O)Nc1cccc(-n2c(=O)n(C3CC3)c(=O)c3c(Nc4ccc(I)cc4F)n(C)c(=O)c(C)c32)c1 [Trametinib] (partner 0.02 µM)
Method in brief: as §1

Crizotinib + Pictilisib = compound: C[C@@H](Oc1cc(-c2cnn(C3CCNCC3)c2)cnc1N)c1c(Cl)ccc(F)c1Cl [Crizotinib] + CS(=O)(=O)N1CCN(Cc2cc3nc(-c4cccc5[nH]ncc45)nc(N4CCOCC4)c3s2)CC1 [Pictilisib] (partner 1 µM)
Method in brief: as §1

Olaparib + AZD7762 = compound: O=C(c1cc(Cc2n[nH]c(=O)c3ccccc23)ccc1F)N1CCN(C(=O)C2CC2)CC1 [Olaparib] + NC(=O)Nc1cc(-c2cccc(F)c2)sc1C(=O)N[C@H]1CCCNC1 [AZD7762] (partner 0.2 µM)
Method in brief: as §1

Cell Line	relative viability (Crizotinib + OSI-027; first compound 0.01 µM)	relative viability (Crizotinib + OSI-027; first compound 0.03162 µM)	relative viability (Crizotinib + OSI-027; first compound 0.1 µM)	relative viability (Crizotinib + OSI-027; first compound 0.3162 µM)	relative viability (Crizotinib + OSI-027; first compound 1 µM)	relative viability (Carfilzomib + Trametinib; first compound 0.001 µM)	relative viability (Carfilzomib + Trametinib; first compound 0.003162 µM)	relative viability (Carfilzomib + Trametinib; first compound 0.01 µM)	relative viability (Carfilzomib + Trametinib; first compound 0.03162 µM)	relative viability (Carfilzomib + Trametinib; first compound 0.1 µM)	relative viability (Crizotinib + Pictilisib; first compound 0.01 µM)	relative viability (Crizotinib + Pictilisib; first compound 0.03162 µM)	relative viability (Crizotinib + Pictilisib; first compound 0.1 µM)	relative viability (Crizotinib + Pictilisib; first compound 0.3162 µM)	relative viability (Crizotinib + Pictilisib; first compound 1 µM)	relative viability (Olaparib + AZD7762; first compound 0.08 µM)	relative viability (Olaparib + AZD7762; first compound 0.253 µM)	relative viability (Olaparib + AZD7762; first compound 2.53 µM)	relative viability (Olaparib + AZD7762; first compound 8 µM)
HCC-827	0.704	0.738	0.793	0.461	0.467	0.566	0.542	0.534	0.491	0.191	1.1	1.03	0.943	0.96	0.961	0.259	0.214	0.239	0.224
HOP-62	0.816	0.84	0.822	0.765	–	0.385	0.38	0.363	0.21	0.0811	0.469	0.625	0.779	0.342	0.624	0.43	0.614	0.463	0.155
IA-LM	–	–	–	–	–	–	–	–	–	–	0.34	0.331	0.353	0.343	0.305	–	–	–	–
LC-2-ad	0.761	0.974	0.96	0.612	0.705	0.9	0.97	0.881	0.917	0.471	0.473	0.426	0.461	–	0.44	0.89	0.76	0.851	0.727
LCLC-97TM1	0.506	0.457	0.462	0.486	0.354	0.19	0.21	0.227	0.0729	0.0639	0.205	0.18	0.182	0.128	0.194	0.294	0.202	–	0.168
NCI-H520	0.272	0.295	0.24	0.27	0.258	0.531	0.697	0.598	0.124	0.134	0.261	0.333	0.303	0.319	0.251	–	–	–	–
NCI-H522	0.672	0.718	0.702	0.739	0.701	0.777	0.767	0.815	0.506	0.336	–	–	–	–	–	0.974	0.896	0.809	0.705
NCI-H661	0.606	0.74	0.771	0.711	0.663	0.642	0.635	0.599	0.526	0.276	0.379	0.349	0.383	0.378	0.36	–	–	–	–
NCI-H1299	–	–	–	–	–	–	–	–	–	–	0.827	0.647	0.728	0.718	0.909	–	–	–	–
NCI-H1563	0.705	0.766	0.753	0.727	0.766	–	–	–	–	–	0.527	0.594	0.628	0.555	0.652	–	–	–	–
NCI-H1623	0.439	0.435	0.454	0.378	0.4	–	–	–	–	–	–	–	–	–	–	–	–	–	–
NCI-H1648	0.274	0.265	–	0.224	0.257	0.685	0.566	0.592	0.394	0.261	–	–	–	–	–	0.831	0.75	–	0.544
NCI-H1650	0.554	0.624	0.585	0.54	0.569	0.487	0.537	0.52	0.103	0.1	0.516	0.584	0.573	0.535	0.559	–	–	–	–
NCI-H1703	–	–	–	–	–	–	–	–	–	–	0.286	0.224	0.236	0.273	0.284	0.119	0.193	0.143	0.141
NCI-H2009	0.704	0.611	0.64	0.594	0.642	0.232	0.312	0.287	0.295	0.119	0.607	0.83	0.799	0.688	0.782	–	–	–	–
NCI-H2023	0.354	0.438	0.359	0.297	0.329	0.486	0.614	0.669	0.269	0.0795	0.225	0.232	0.189	0.192	0.217	–	–	–	–
NCI-H2228	0.607	0.563	0.54	0.272	0.164	0.235	0.584	0.697	0.103	0.109	0.392	0.308	0.362	0.164	0.0922	–	–	–	–
NCI-H2342	0.652	0.613	0.623	0.509	0.547	0.844	0.851	0.862	0.949	0.633	–	–	–	–	–	0.544	0.4	0.439	0.474
SK-LU-1	0.36	0.342	0.331	0.324	0.353	0.394	0.545	0.474	0.202	0.185	0.613	0.709	0.557	0.686	0.567	–	–	–	–
SK-MES-1	0.612	0.646	0.568	0.556	0.586	0.545	0.536	0.549	0.44	0.201	0.402	0.311	0.35	0.299	0.333	–	–	–	–
SW 900	0.499	0.507	0.581	0.509	0.568	–	0.804	0.163	0.177	0.126	–	–	–	–	–	0.652	0.637	0.584	0.555
SW 1573	0.538	0.609	0.563	0.59	0.587	0.55	0.626	0.55	0.0697	0.0572	0.424	0.525	0.558	0.459	0.52	–	–	–	–
UMC-11	0.418	0.472	0.523	0.434	0.46	0.32	0.739	0.657	0.703	0.322	0.753	0.854	0.803	0.161	0.785	–	–	–	–
